Measured values reported in patent EP0637588A1, “ACTIVE OXYGEN INHIBITOR COMPOSITION” (SHISEIDO COMPANY LIMITED, priority 1993, dated 1994).

Test system: polymorphonuclear leukocyte (PMNs)
Test: Suppressing action on production of active oxygen from neutrophils (OPZ-stimulated, FCLA dependent chemiluminescence)
Format: cell-based, white Japanese rabbit
Conditions: Oryctolagus cuniculus, PMNs stimulated by opsonized zymosan (OPZ), 37°C, read-out: Suppressing Action on Production of Active Oxygen (Suppressive Rate %)
Experimental: A 400 mL amount of physiological saline solution containing 0.2% glycogen was administered by drip into the abdominal cavity of a white Japanese rabbit having about 3 kg body weight without anesthesia. After 16 hours, 400 ml of sterilized physiological saline solution was administered, the cavity was massaged well, then the ascites was sampled. This was centrifuged at 100 × g to obtain a precipitate which was then suspended in a Hanks Balanced Salt Solution (HBSS) and adjusted to 5 x 10⁵ cells/mL. This was used as the polymorphonuclear leukocyte (PMNs) fraction. The action on the production of active oxygen by opsonized zymosan (OPZ) was studied as follows: To PMNs (480 µl) were added 3,7-dihydro-6-[4-[2-(N'-(5-fluoresceinyl)thioureid)ethoxy]phenyl]-2-methylimidazo[1,2-a]pyradine-3-on·sodium salt (FCLA) (2 µM) and various concentrations of test compounds. The resulting mixture was incubated at 37°C for 10 minutes, OPZ was added in an amount of 5 µL, and then the FCLA dependent chemiluminescence was measured using a photon counter (made by BertHold of Germany) under a constant temperature of 37°C along with the elapse of time.

Work on `O=C1O[C@H]([C@@H](O)CO)C(O)=C1O` [Ascorbic acid] yielded an inhibition at 0.1 µM (Concentration 0.1 µM) of 20.1%, an inhibition at 1 µM (Concentration 1.0 µM) of 51.7% and an inhibition at 10 µM (Concentration 10 µM) of 86.8%.
